Test results as given in patent publication US11306063B2, “Heterocyclic naphthoquinones derivatives for use in the treatment of cancers including Cushing disease” (Commissariat a l'Energie Atomique et aux Energies …, priority 2016, dated 2022).
Like-named read-outs stand apart in the source and are kept apart here.

Experiments:
[1] = molecular target: T1, USP8^CD (purified catalytic domain of USP8) (Homo sapiens, UniProt P40818); test: Inhibition of purified USP8^CD enzymatic activity (Ub-AMC or Ub-Rho substrate); format: biochemical; settings: for inhibition at 0.01 µM: 0.01 μM compound; for inhibition at 0.05 µM: 0.05 μM compound; for inhibition at 0.1 µM: 0.1 μM compound; for inhibition at 0.5 µM: 0.5 μM compound; for inhibition at 1 µM: 1 μM compound; for inhibition at 5 µM: 5 μM compound; for inhibition at 10 µM: 10 μM compound; for inhibition at 25 µM: 25 μM compound; for inhibition at 50 µM: 50 μM compound; for inhibition of USP8^CD catalytic activity (IC50 range, FIG. 1): Ub-Rho substrate (0.1 μM)
T1 construct: the purified catalytic domain of USP8 (USP8^CD, in-house purified); made in house; host or cells: E. coli BL21 Gold
T1 sequence (P40818 777-1109 limits assumed): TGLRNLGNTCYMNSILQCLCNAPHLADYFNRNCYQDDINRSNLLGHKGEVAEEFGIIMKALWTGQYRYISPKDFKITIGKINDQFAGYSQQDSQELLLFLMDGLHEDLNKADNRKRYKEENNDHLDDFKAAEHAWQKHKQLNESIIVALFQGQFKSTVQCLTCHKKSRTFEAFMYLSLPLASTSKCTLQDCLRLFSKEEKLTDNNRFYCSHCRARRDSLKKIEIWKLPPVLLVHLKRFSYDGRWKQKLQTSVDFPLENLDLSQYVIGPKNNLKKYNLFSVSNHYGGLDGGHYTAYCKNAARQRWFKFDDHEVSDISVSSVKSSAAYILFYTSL
In short: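 His-tagged catalytic domain expressed in E. coli and purified by Ni affinity and gel filtration. Assayed in 50 mM HEPES pH 7.6 or 40 mM Tris pH 7.4 buffer with 1 mM DTT; compound added just before Ub-AMC or Ub-Rho substrate, fluorescence kinetics followed 20 or 30 min. Median of duplicates.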

[2] = tested on: PC-3 cells; test: Cytotoxicity assay (PrestoBlue cell viability), PC-3; format: cell-based; settings: Homo sapiens, 48 hours treatment
Experimental: (§1) Messa, Messa DX5, HCT116, HEK-293, PC-3, LNCaP, HCC827 and H1975 cell lines are issued from the American Type Culture Collection (ATCC).
Messa, Messa DX5 and HCT116 were maintained in McCoy's supplemented with 10% fetal bovine serum, and 1% penicillin/streptomycin. PC-3, LNCaP cells were maintained in RPMI medium supplemented with 10% fetal bovine serum, and 1% penicilin/streptomycin and in the case of Messa DX5: 500 nM Doxorubicin was added to maintain selection pressure. HEK293 were maintained in DMEM medium supplemented with 10% fetal bovine serum, and 1% penicillin/streptomycin. Cells were maintained at 37° C. with 5% CO2, 95% air, and humid atmosphere. In the case of hormonal dependent LNCaP cells, 2 μM DiHydroTestosterone (DHT) was added or not—depending on the type of biological assay—for the same incubation period as compounds.
(§2) For cytotoxicity assays, cells were seeded in 96-well microplates 24 hours before the addition of increasing concentrations of each compound in the culture medium. Cell viability was analyzed 48 hours following addition of each compound through the monitoring of mitochondrial […] activity using PrestoBlue® Cell Viability Reagent (Invitrogen; #A-13261). Paclitaxel was used as a control which is cytotoxic on various cancerous cells although not on chemoresistant MESSA DX5 lineage.

[3] = tested on: H1975 cells; test: Cytotoxicity assay (PrestoBlue cell viability), H1975; format: cell-based, human
Experimental: as §1, §2

[4] = tested on: HCC827 cells; test: Cell growth inhibition and cell death induction (Incucyte), HCC827; format: cell-based, human; settings: 72 hours, FIG. 12A,B
Excerpt: FIG. 12: The cell growth inhibition and cell death induction of non-small cell lung cancers (NSCLC), HCC827 cells and derivative Gefitinib-resistant clone H1975 (FIG. 12 A,B) and of PC-3 (FIG. 12 C,D) and LnCAP (FIG. 12 E,F) were monitored using Incucyte microscope. Histogram represent in A,C,E: the final cell area relative to the total well area in (%) and in B,D,F: the fluorescent area in μm2. Error bars indicate standard deviation between 6 technical replicates.
The cell growth inhibition and cell death induction of non-small cell lung cancers (NSCLC), HCC827 cells and derivative Gefitinib-resistant clone H1975 were monitored during a period of 72 hours using Incucyte microscope and dedicated programs allowing to monitor cell confluency (i.e.: cell surface area relative to total well surface) and cell death induction by adding Propidium Iodide (PI) at 1 μg/ml (Sigma Aldrich #P4864) in the culture medium.

[5] = Ub-AMC substrate at 1 μM, Table 2b, read-out: IC50 USP8 CD
[6] = Ub-Rhodamine substrate at 0.1 μM, Table 2c, read-out: IC50 USP8 CD

Row | SMILES | inhibition at 0.01 µM ([1]; Table 1d) [%] | inhibition at 0.05 µM ([1]; Table 1d) [%] | inhibition at 0.1 µM ([1]; Table 1d) [%] | inhibition at 0.5 µM ([1]; Table 1d) [%] | inhibition at 1 µM ([1]; Table 1b) [%] | inhibition at 1 µM ([1]; Table 1d) [%] | inhibition at 5 µM ([1]; Table 1b) [%] | inhibition at 5 µM ([1]; Table 1d) [%] | inhibition at 10 µM ([1]; Table 1d) [%] | inhibition at 25 µM ([1]; Table 1b) [%] | inhibition at 50 µM ([1]; Table 1b) [%] | IC50 [1, 5] [nM] | IC50 [1, 6] [nM] | EC50 [2] [nM] | EC50 ([3]; Homo sapiens, NCI-H1975, 48 h) [nM] | inhibition of USP8^CD catalytic activity (IC50 range, FIG. 1) [1] | cell growth inhibition and cell death induction, HCC827 [4] | further results
1 | O=C1c2ccccc2C(=O)c2nc(CS(=O)(=O)c3ccccc3F)c(CS(=O)(=O)c3ccccc3F)nc21 [OVM24] | -25 | 3 | 7 | 65 | 64 | 74 | 103 | 78 | 97 | 115 | 103 | 400 | 2300 | 2500 | 2000 | – | – | –
2 | CCCCS(=O)(=O)Cc1nc2c(nc1CS(=O)(=O)CCCC)C(=O)c1ccccc1C2=O [PCR6236] | – | – | – | – | – | – | – | – | – | – | – | – | – | 800 | – | in the nanomolar range | inhibit cell growth and induce cell death in a dose dependent manner | IC50 [1]: 60 nM; EC50 ([3]; 48 hours treatment, Gefitinib resistant cells): 3000 nM; EC50 ([3]; Homo sapiens, NCI-H1975, 48 h, 48 hours treatment, Gefitinib resistant cells): ≤ 3000 nM
3 | CCCCS(=O)(=O)Cc1nc2c(o1)C(=O)c1ccccc1C2=O [PCR9301] | – | – | – | – | – | – | – | – | – | – | – | – | – | 1000 | – | in the nanomolar range | inhibit cell growth and induce cell death in a dose dependent manner | inhibition at 0.1 µM ([1]; Table 3a): 53%; inhibition at 0.5 µM ([1]; Table 3a): 81%; inhibition at 1 µM ([1]; Table 3a): 107%; IC50 ([1]; Ub-Rho substrate, Table 3b, read-out: IC50 against purified USP8^CD): 80 nM
4 | CCCS(=O)(=O)Cc1nc2c(nc1CS(=O)(=O)CCC)C(=O)c1ccccc1C2=O [VIN6074] | -17 | 16 | 0 | 67 | 93 | 93 | 98 | 103 | 99 | 100 | 107 | 300 | 40 | 2300 | 2000 | – | – | –
